# Measured values as given in patent publication US20140328826A1, “PRODUCT AND METHOD FOR TREATING KELOID SCARS, HYPERTROPHIC SCARS AND BURN SCARS WITH CONTRACTURE” (COLE Research & Design, Inc., priority 2013, published 2014).
# Tested on: keloid scar
# Test: Intralesional injection of the pharmaceutical composition into keloid scars of patients
# Type: in vivo, human
# Conditions: injected into the keloid scar; general statement, 'often'
# Procedure: A pharmaceutical composition was prepared by mixing 1.0 mg of high molecular weight hyaluronic acid (0.1 cc of HYALGAN®, sodium hyaluronate) with 7.5 units of hyaluronidase (HYLENEX® recombinant human hyaluronidase), which was injected into the keloid scar. […] Erythema and tenderness of the keloid scar was also resolved.
# A pharmaceutical composition was prepared as in Example 1, and injected into the keloid scar.
# The patient also reported a sharp, piercing pain from the keloid scar. A pharmaceutical composition was prepared as in Example 1, and injected into the keloid scar.
# A fourth patient had two keloid scars, one on each earlobe. A pharmaceutical composition was prepared as in Example 1, and injected into each of the keloid scars. […] Some itching was reported by the patient.
# All four patients responded to the treatment. Overall, there was significant reduction in keloid scar size, with an average of approximately a 22% reduction in length, a 37% reduction in width, and a 45% reduction in height. Even more striking was great reduction in density and hardness of the keloid scar tissue, leaving a soft pliable skin sack after treatment.
# Only a few mild adverse reactions were reported. Two patients reported very mild itching from the keloid scars. Some stinging from the injection was also reported. No significant pain or swelling was reported.
substance,measurement,value
low molecular weight hyaluronic acid,shrinkage of keloid scar volume,≥ 50%
